Values joined by “and” are separate entries in the source; they are usually repeats but may differ in a detail not shown here. Equal values may be shown once.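 Each compound was tested at five concentrations against cells in 96-well plates for 48 hours. TGI: total growth inhibition.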
Experiments:
Experiment in all cases: DTP human tumour cell line panel, 48 h
786-0 renal = test system: 786-0 renal
A498 renal = test system: A498 renal
A549 NSCLC = test system: A549 NSCLC
ACHN renal = test system: ACHN renal
BT-549 breast = test system: BT-549 breast
CAKI-1 renal = test system: CAKI-1 renal
CCRF-CEM leukemia = test system: CCRF-CEM leukemia
COLO 205 colon = test system: COLO 205 colon
DU-145 prostate = test system: DU-145 prostate
EKVX NSCLC = test system: EKVX NSCLC
HCC-2998 colon = test system: HCC-2998 colon
HCT-116 colon = test system: HCT-116 colon
HCT-15 colon = test system: HCT-15 colon
HL-60(TB) leukemia = test system: HL-60(TB) leukemia
HOP-62 NSCLC = test system: HOP-62 NSCLC
HOP-92 NSCLC = test system: HOP-92 NSCLC
HS 578T breast = test system: HS 578T breast
HT29 colon = test system: HT29 colon
IGROV1 ovarian = test system: IGROV1 ovarian
K-562 leukemia = test system: K-562 leukemia
KM12 colon = test system: KM12 colon
LOX IMVI melanoma = test system: LOX IMVI melanoma
M14 melanoma = test system: M14 melanoma
MALME-3M melanoma = test system: MALME-3M melanoma
MCF7 breast = test system: MCF7 breast
MDA-MB-231 breast = test system: MDA-MB-231 breast
MDA-MB-435 = test system: MDA-MB-435
MDA-N = test system: MDA-N
MOLT-4 leukemia = test system: MOLT-4 leukemia
NCI-H226 lung = test system: NCI-H226 lung
NCI-H23 lung = test system: NCI-H23 lung
NCI-H460 lung = test system: NCI-H460 lung
NCI-H522 lung = test system: NCI-H522 lung
NCI/ADR-RES ovarian = test system: NCI/ADR-RES ovarian
OVCAR-3 ovarian = test system: OVCAR-3 ovarian
OVCAR-4 ovarian = test system: OVCAR-4 ovarian
OVCAR-5 ovarian = test system: OVCAR-5 ovarian
OVCAR-8 ovarian = test system: OVCAR-8 ovarian
PC-3 prostate = test system: PC-3 prostate
RPMI-8226 leukemia = test system: RPMI-8226 leukemia
RXF 393 renal = test system: RXF 393 renal
SF-268 CNS = test system: SF-268 CNS
SF-295 CNS = test system: SF-295 CNS
SF-539 CNS = test system: SF-539 CNS
SK-MEL-2 melanoma = test system: SK-MEL-2 melanoma
SK-MEL-28 melanoma = test system: SK-MEL-28 melanoma
SK-MEL-5 melanoma = test system: SK-MEL-5 melanoma
SK-OV-3 ovarian = test system: SK-OV-3 ovarian
SN12C renal = test system: SN12C renal
SNB-19 CNS = test system: SNB-19 CNS
SNB-75 CNS = test system: SNB-75 CNS
SR leukemia = test system: SR leukemia
SW-620 colon = test system: SW-620 colon
T-47D breast = test system: T-47D breast
TK-10 renal = test system: TK-10 renal
U251 CNS = test system: U251 CNS
UACC-257 melanoma = test system: UACC-257 melanoma
UACC-62 melanoma = test system: UACC-62 melanoma
UO-31 renal = test system: UO-31 renal
DLD-1 colon = test system: DLD-1 colon
DMS 114 small cell lung = test system: DMS 114 small cell lung
DMS 273 small cell lung = test system: DMS 273 small cell lung
HOP-18 NSCLC = test system: HOP-18 NSCLC
KM20L2 colon = test system: KM20L2 colon
LXFL 529 NSCLC = test system: LXFL 529 NSCLC
M19-MEL melanoma = test system: M19-MEL melanoma

Compound: Cn1c(=O)cc(N=Nc2ccc(Cl)c(Cl)c2)[nH]c1=O
- TGI (786-0 renal): 31.9 µM
- TGI (A498 renal): > 100 µM
- TGI (A549 NSCLC): > 100 µM
- TGI (ACHN renal): 47.4 µM
- TGI (BT-549 breast): 96.2 µM
- TGI (CAKI-1 renal): 28.5 µM
- TGI (CCRF-CEM leukemia): 68.8 µM
- TGI (COLO 205 colon): 60.5 µM
- TGI (DU-145 prostate): > 100 µM
- TGI (EKVX NSCLC): 51.4 µM
- TGI (HCC-2998 colon): > 100 µM
- TGI (HCT-116 colon): 59.6 µM
- TGI (HCT-15 colon): 38.9 µM
- TGI (HL-60(TB) leukemia): 50.7 µM
- TGI (HOP-62 NSCLC): > 100 µM
- TGI (HOP-92 NSCLC): 80.4 µM
- TGI (HS 578T breast): 94 µM
- TGI (HT29 colon): 38.6 µM
- TGI (IGROV1 ovarian): > 100 µM
- TGI (K-562 leukemia): 55.9 µM
- TGI (KM12 colon): > 100 µM
- TGI (LOX IMVI melanoma): 34.3 µM
- TGI (M14 melanoma): 47.7 µM
- TGI (MALME-3M melanoma): 32.6 µM
- TGI (MCF7 breast): 59.8 µM
- TGI (MDA-MB-231 breast): 45.3 µM
- TGI (MDA-MB-435): 40.5 µM
- TGI (MDA-N): 37.4 µM
- TGI (MOLT-4 leukemia): 61 µM
- TGI (NCI-H226 lung): > 100 µM
- TGI (NCI-H23 lung): 86.5 µM
- TGI (NCI-H460 lung): > 100 µM
- TGI (NCI-H522 lung): 49.4 µM
- TGI (NCI/ADR-RES ovarian): 77.4 µM
- TGI (OVCAR-3 ovarian): 33.2 µM
- TGI (OVCAR-4 ovarian): 61.7 µM
- TGI (OVCAR-5 ovarian): > 100 µM
- TGI (OVCAR-8 ovarian): 53 µM
- TGI (PC-3 prostate): 56.1 µM
- TGI (RPMI-8226 leukemia): 71.1 µM
- TGI (RXF 393 renal): 63.6 µM
- TGI (SF-268 CNS): 51.1 µM
- TGI (SF-295 CNS): > 100 µM
- TGI (SF-539 CNS): > 100 µM
- TGI (SK-MEL-2 melanoma): 45.2 µM
- TGI (SK-MEL-28 melanoma): 57.5 µM
- TGI (SK-MEL-5 melanoma): > 100 µM
- TGI (SK-OV-3 ovarian): > 100 µM
- TGI (SN12C renal): > 100 µM
- TGI (SNB-19 CNS): > 100 µM
- TGI (SNB-75 CNS): > 100 µM
- TGI (SR leukemia): 54 µM
- TGI (SW-620 colon): 58.9 µM
- TGI (T-47D breast): > 100 µM
- TGI (TK-10 renal): 47.9 µM
- TGI (U251 CNS): 56.3 µM
- TGI (UACC-257 melanoma): 65.9 µM
- TGI (UACC-62 melanoma): > 100 µM
- TGI (UO-31 renal): > 100 µM

Compound: COc1c(O)c(O)c2c(c1O)C(=O)c1cc(C)cc(O)c1C2=O
- TGI (786-0 renal): > 100 µM
- TGI (A498 renal): > 100 µM
- TGI (A549 NSCLC): > 100 µM
- TGI (ACHN renal): > 100 µM
- TGI (BT-549 breast): > 100 µM
- TGI (CAKI-1 renal): > 100 µM
- TGI (CCRF-CEM leukemia): > 100 µM
- TGI (COLO 205 colon): 93.2 µM
- TGI (DU-145 prostate): > 100 µM
- TGI (EKVX NSCLC): > 100 µM
- TGI (HCC-2998 colon): > 100 µM
- TGI (HCT-116 colon): > 100 µM
- TGI (HCT-15 colon): > 100 µM
- TGI (HL-60(TB) leukemia): > 100 µM
- TGI (HOP-62 NSCLC): > 100 µM
- TGI (HOP-92 NSCLC): > 100 µM
- TGI (HS 578T breast): 78.9 µM
- TGI (HT29 colon): > 85.4 µM
- TGI (IGROV1 ovarian): > 100 µM
- TGI (K-562 leukemia): 98.5 µM
- TGI (KM12 colon): > 100 µM
- TGI (LOX IMVI melanoma): > 100 µM
- TGI (M14 melanoma): > 100 µM
- TGI (MALME-3M melanoma): 83.5 µM
- TGI (MCF7 breast): > 100 µM
- TGI (MDA-MB-231 breast): 42 µM
- TGI (MDA-MB-435): > 100 µM
- TGI (MDA-N): > 100 µM
- TGI (MOLT-4 leukemia): > 100 µM
- TGI (NCI-H226 lung): > 93.5 µM
- TGI (NCI-H23 lung): > 100 µM
- TGI (NCI-H460 lung): > 78 µM
- TGI (NCI-H522 lung): 48.1 µM
- TGI (NCI/ADR-RES ovarian): 47.3 µM
- TGI (OVCAR-3 ovarian): > 100 µM
- TGI (OVCAR-4 ovarian): > 89.1 µM
- TGI (OVCAR-5 ovarian): > 100 µM
- TGI (OVCAR-8 ovarian): > 83.3 µM
- TGI (PC-3 prostate): > 100 µM
- TGI (RPMI-8226 leukemia): > 100 µM
- TGI (RXF 393 renal): > 100 µM
- TGI (SF-268 CNS): > 100 µM
- TGI (SF-295 CNS): > 69.7 µM
- TGI (SF-539 CNS): > 100 µM
- TGI (SK-MEL-2 melanoma): > 100 µM
- TGI (SK-MEL-28 melanoma): > 100 µM
- TGI (SK-MEL-5 melanoma): > 100 µM
- TGI (SK-OV-3 ovarian): > 80 µM
- TGI (SN12C renal): > 100 µM
- TGI (SNB-19 CNS): > 100 µM
- TGI (SNB-75 CNS): > 86.5 µM
- TGI (SR leukemia): > 100 µM
- TGI (SW-620 colon): > 100 µM
- TGI (T-47D breast): > 100 µM
- TGI (TK-10 renal): > 100 µM
- TGI (U251 CNS): > 100 µM
- TGI (UACC-257 melanoma): > 100 µM
- TGI (UACC-62 melanoma): 54.5 µM
- TGI (UO-31 renal): > 100 µM

Compound: NC(=O)CCC(NC(=O)Cc1ccccc1)C(=O)O (centres undefined) (tested in a mixture with another compound)
- TGI (786-0 renal): > 8130 µM
- TGI (A498 renal): > 8130 µM
- TGI (A549 NSCLC): > 8130 µM
- TGI (CAKI-1 renal): > 8130 µM
- TGI (CCRF-CEM leukemia): > 8130 µM
- TGI (COLO 205 colon): > 8130 µM
- TGI (DLD-1 colon): > 8130 µM
- TGI (DMS 114 small cell lung): > 8130 µM
- TGI (DMS 273 small cell lung): > 2470 µM
- TGI (EKVX NSCLC): > 8130 µM
- TGI (HCC-2998 colon): > 8130 µM
- TGI (HCT-116 colon): > 8130 µM
- TGI (HCT-15 colon): > 2470 µM
- TGI (HL-60(TB) leukemia): > 8130 µM
- TGI (HOP-18 NSCLC): > 8130 µM
- TGI (HOP-62 NSCLC): > 8130 µM
- TGI (HOP-92 NSCLC): > 8130 µM
- TGI (HT29 colon): > 8130 µM
- TGI (IGROV1 ovarian): > 8130 µM
- TGI (K-562 leukemia): > 8130 µM
- TGI (KM12 colon): > 8130 µM
- TGI (KM20L2 colon): > 8130 µM
- TGI (LXFL 529 NSCLC): > 8130 µM
- TGI (M14 melanoma): > 8130 µM
- TGI (M19-MEL melanoma): > 8130 µM
- TGI (MALME-3M melanoma): > 8130 µM
- TGI (MOLT-4 leukemia): > 8130 µM
- TGI (NCI-H23 lung): > 8130 µM
- TGI (NCI-H522 lung): > 8130 µM
- TGI (OVCAR-3 ovarian): > 8130 µM
- TGI (OVCAR-4 ovarian): > 8130 µM
- TGI (OVCAR-5 ovarian): > 8130 µM
- TGI (OVCAR-8 ovarian): > 8130 µM
- TGI (RPMI-8226 leukemia): > 8130 µM
- TGI (RXF 393 renal): 2030 µM and > 8130 µM
- TGI (SF-268 CNS): > 8130 µM
- TGI (SF-295 CNS): > 8130 µM
- TGI (SF-539 CNS): > 8130 µM
- TGI (SK-MEL-2 melanoma): > 8130 µM
- TGI (SK-MEL-28 melanoma): > 8130 µM
- TGI (SK-MEL-5 melanoma): > 8130 µM
- TGI (SK-OV-3 ovarian): > 8130 µM
- TGI (SN12C renal): > 8130 µM
- TGI (SNB-19 CNS): > 8130 µM
- TGI (SNB-75 CNS): 1680 µM and > 8130 µM
- TGI (SR leukemia): > 8130 µM
- TGI (SW-620 colon): > 8130 µM
- TGI (TK-10 renal): > 8130 µM
- TGI (U251 CNS): > 8130 µM
- TGI (UACC-62 melanoma): > 8130 µM
- TGI (UO-31 renal): 2100 µM and > 8130 µM
